According to the NIST ThermoML archive (doi:10.1021/je900596d):

Details: Liquid; for mass density: Vibrating tube method; for vapor or sublimation pressure: Closed cell (Static) method

FC(F)=C(F)C(F)(F)F [hexafluoropropene]
Details	mass density [kg/m3]
323.37 K, 6438.3 kPa	1253.13
323.37 K, 6494.6 kPa	1253.91
323.37 K, 6551.8 kPa	1254.4
323.37 K, 6606.9 kPa	1255.07
323.37 K, 6663.3 kPa	1255.73
323.37 K, 6721.4 kPa	1256.27
323.37 K, 6837.9 kPa	1257.77
323.37 K, 6894.2 kPa	1258.24
323.37 K, 6952.1 kPa	1259
323.37 K, 7008.2 kPa	1259.55
323.37 K, 7067.2 kPa	1260.31
323.37 K, 7126.4 kPa	1260.79
323.37 K, 7183.6 kPa	1261.47
323.37 K, 7241.8 kPa	1262.13
323.37 K, 7299.5 kPa	1262.75
323.37 K, 7358.7 kPa	1263.39
323.37 K, 7415.2 kPa	1263.98
323.37 K, 7474.7 kPa	1264.58
323.37 K, 7531.4 kPa	1265.19
323.37 K, 7588.8 kPa	1265.89
323.37 K, 7648.3 kPa	1266.42
323.37 K, 7707.1 kPa	1267.12
323.37 K, 7764.7 kPa	1267.63
323.37 K, 7823.9 kPa	1268.27
323.37 K, 7882.7 kPa	1268.85
323.37 K, 7940.4 kPa	1269.67
323.37 K, 7995.5 kPa	1270.08
323.37 K, 8048 kPa	1270.66
323.37 K, 8125.8 kPa	1271.24
323.37 K, 8203.2 kPa	1272.24
323.37 K, 8277.9 kPa	1272.98
323.37 K, 8354.3 kPa	1273.75
323.37 K, 8407.9 kPa	1274.11
323.37 K, 8486.2 kPa	1275.02
323.37 K, 8565.3 kPa	1275.71
323.37 K, 8644.1 kPa	1276.5
323.37 K, 8721.2 kPa	1277.38
323.37 K, 8795.7 kPa	1278.02
323.37 K, 8871.5 kPa	1278.77
323.37 K, 8923.6 kPa	1279.19
323.37 K, 9000 kPa	1279.98
323.37 K, 9075.8 kPa	1280.67
323.37 K, 9128 kPa	1281.22
323.37 K, 9181 kPa	1281.6
323.37 K, 9257 kPa	1282.4
323.37 K, 9330.9 kPa	1283.02
323.37 K, 9404.8 kPa	1283.76
323.37 K, 9479.6 kPa	1284.46
323.37 K, 9533 kPa	1284.99
323.37 K, 9609.3 kPa	1285.65
323.37 K, 9682.9 kPa	1286.27
323.37 K, 9757.3 kPa	1287.03
323.37 K, 9833.2 kPa	1287.72
323.37 K, 9909.3 kPa	1288.32
323.37 K, 9986.3 kPa	1289.02
343.18 K, 2257.1 kPa	1022.11
343.18 K, 2260.4 kPa	1022.55
343.18 K, 2263.3 kPa	1022.75
343.18 K, 2269.6 kPa	1023.31
343.18 K, 2279.2 kPa	1024.07
343.18 K, 2287.2 kPa	1024.5
343.18 K, 2297 kPa	1025.46
343.18 K, 2306 kPa	1025.93
343.18 K, 2314 kPa	1026.5

Details	vapor or sublimation pressure [kPa]
328.21 K	1595.1
333.21 K	1791.4
338.18 K	2007.9
